Assay results: PubChem BioAssay AID1648 (Sanford-Burnham Center for Chemical Genomics, 2009)
Calls of active or inactive are those of the source. No rule for the calls is given here.

Target: Serine/threonine-protein kinase mTOR (Homo sapiens) (UniProt P42345)
Experiment: mTOR FRB domain ligand binding – biophysical, NMR (AID 1648)
Settings: NMR binding to FRB domain, chemical shift

Serine/threonine-protein kinase mTOR (Homo sapiens), sequence (P42345 2015-2114): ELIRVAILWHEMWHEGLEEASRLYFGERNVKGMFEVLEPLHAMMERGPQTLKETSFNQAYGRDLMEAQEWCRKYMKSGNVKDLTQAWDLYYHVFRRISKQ

SMILES | Kd
O=C(O[C@@H]1Cc2c(O)cc(O)cc2O[C@@H]1c1ccc(O)c(O)c1)c1cc(O)c(O)c(O)c1 | > 4 mM (inactive)
O=C1CN(c2ccccc2)CC(=O)N1 | > 4 mM (inactive)
CSc1ccc(C2NC(=O)CCC2[N+](=O)[O-])cc1 (stereo unspecified) | > 4 mM (inactive)
Cc1cc(/C=N/O)nc(=O)[nH]1 | > 4 mM (inactive)
Cc1cc(C)n(-c2cccc3cccnc23)n1 | > 4 mM (inactive)
CCCNC(=O)CSc1nnc(C)s1 | > 4 mM (inactive)
CC1(C)CC2C1CCC1(C)OC1CCC2(C)O (stereo unspecified) | > 4 mM (inactive)
Cn1c(NCc2ccccc2O)nc2ccccc21 | > 4 mM (inactive)
Cc1ccc(C(=O)n2cnnc2N)cc1C | > 4 mM (inactive)
Cc1nnsc1C(=O)N(C)c1ccccc1 | > 4 mM (inactive)
c1ccc(-c2n[nH]c(-c3ccccn3)n2)nc1 | > 4 mM (inactive)
O=C1NC(=Nc2ccc(O)cc2)S/C1=C/c1ccco1 | > 4 mM (inactive)
c1ccc(CCN2CCN(CCc3ccccn3)CC2)nc1 | > 4 mM (inactive)
Cn1ccc(NC(=S)NC2CCCC2)n1 | > 4 mM (inactive)
NS(=O)(=O)c1ccc2c3c(cccc13)C(=O)N2 | > 4 mM (inactive)
Cc1sc2nc[nH]c(=S)c2c1C | > 4 mM (inactive)
CC(C)CC(=O)Nc1c[nH]c(=O)[nH]c1=O | > 4 mM (inactive)
COC(=O)C[C@H]1C2(C)CC34OC5(C)O[C@@]6([C@H](OC(C)=O)C(OC(C)=O)[C@]7(C)C(/C(=C(/O)C(C)C)C(=O)O[C@H]7c7ccoc7)[C@@]6(O5)[C@H](OC(C)=O)[C@@]3(O)C2OC(=O)C(C)C)[C@]14C (stereo partly specified) | > 4 mM (inactive)
Cc1nnc(NCc2cccnc2)[nH]c1=O | > 4 mM (inactive)
CCNC(=S)N1CCC(C(N)=O)CC1 | > 4 mM (inactive)
O=C(O)C(O)C(O)C(O)C(O)C(=O)O (stereo unspecified) | > 4 mM (inactive)
O=c1c2ccccc2nc2n1CCC2O (stereo unspecified) | > 4 mM (inactive)
COc1ccc2c(c1)OC/C(=C/c1ccc(OC)c(OC)c1)C2=O | > 4 mM (inactive)
O=C(Nc1ccc(N2CCOCC2)cc1)c1cnsn1 | > 4 mM (inactive)
Nc1cccc(C(=O)c2ccccc2)c1 | > 4 mM (inactive)

SMILES | Kd
NC1=C(c2ccccc2)C(=O)c2ccccc21 | > 4 mM (inactive)
O=c1cccc2n1CC1CC2CN2CCCC[C@@H]12 (stereo partly specified) | > 4 mM (inactive)
CSc1ccccc1NC(=O)c1cnccn1 | > 4 mM (inactive)
CC(=O)Nc1ccc(S(=O)(=O)NCC2CCCO2)cc1 (stereo unspecified) | > 4 mM (inactive)
O=c1ccc2ccccc2o1 | > 4 mM (inactive)
Cc1n[nH]c(=S)n(/N=C/c2ccccc2)c1=O | > 4 mM (inactive)
CCn1nnnc1Oc1ccc(Cl)cc1 | > 4 mM (inactive)
COC(=O)C1=CO[C@@H](O[C@@H]2O[C@H](CO)[C@@H](O)[C@H](O)[C@H]2O)[C@@H]2[C@@H](C)[C@@H](O)C[C@H]12 | > 4 mM (inactive)
OCC1Cc2ccccc2N1 (stereo unspecified) | > 4 mM (inactive)
COc1cc(C/C=C/c2ccccc2)c(OC)cc1O | > 4 mM (inactive)
CC(=O)c1cc(C)ccc1O | > 4 mM (inactive)
NC(=O)c1c[nH]c2ccccc12 | > 4 mM (inactive)
[O-][n+]1cc(O)c(CN2CCOCC2)c2ccccc21 | > 4 mM (inactive)
O=C(O)c1ccc(-n2cccn2)cc1 | > 4 mM (inactive)
O=C(Nc1ccc2c(c1)OCO2)c1cnn2cccnc12 | > 4 mM (inactive)
NC(=O)NC1C=CS(=O)(=O)C1 (stereo unspecified) | > 4 mM (inactive)
Nc1nc2n(c1C(=O)c1ccccc1)CCC2 | > 4 mM (inactive)
O=C1O[C@H](C(O)CO)C(O)=C1O (stereo partly specified) | > 4 mM (inactive)
Nc1nc(NCc2ccco2)nn1-c1ccccc1 | > 4 mM (inactive)
O=c1c(O)c(-c2ccccc2)oc2ccc3occc3c12 | > 4 mM (inactive)
COc1ccc2c(c1)CCCN2C(N)=O | > 4 mM (inactive)
O=C(Nc1ccccc1)c1cccc(N2C(=O)CCC2=O)c1 | > 4 mM (inactive)
O=C(NC1CCS(=O)(=O)C1)C1CCCCC1 (stereo unspecified) | > 4 mM (inactive)
COc1cc2c(cc1OC)C(C)NCC2 (stereo unspecified) | > 4 mM (inactive)
Nc1cc(N)nc(SCc2ccccc2)n1 | > 4 mM (inactive)

SMILES | Kd
O=C1NC(=S)N/C1=C/c1ccsc1 | > 4 mM (inactive)
CC(=O)Oc1ccc(O)cc1 | > 4 mM (inactive)
OCc1cccc2c1OCCO2 | > 4 mM (inactive)
CN(C)C(=O)C12CCC(C)(C(=O)O1)C2(C)C (stereo unspecified) | > 4 mM (inactive)
O=c1cnnc(N2CCCCC2)[nH]1 | > 4 mM (inactive)
N=Nc1c(O)[nH]c2ccccc12 | > 4 mM (inactive)
O=C1CSC(c2ccccc2)N1 (stereo unspecified) | > 4 mM (inactive)
CN1CC(=O)N=C1N | > 4 mM (inactive)
c1ccc(-c2nsc(N3CCCNCC3)n2)cc1 | > 4 mM (inactive)
Cc1ccccc1CSc1nncn1N | > 4 mM (inactive)
CCOC(=O)N1CCN(c2ncnc3c2cnn3C)CC1 | > 4 mM (inactive)
OC/C=C/c1ccc(O)c(O)c1 | > 4 mM (inactive)
O=C(Nn1cnnc1)c1cc2c(s1)CCCCC2 | > 4 mM (inactive)
C=Cc1c(C)c2cc3[nH]c(cc4nc(cc5nc(cc1[nH]2)C(C)=C5CCC(=O)O)C(CCC(=O)O)=C4C)c(C)c3C=C | > 4 mM (inactive)
O=C(CSc1ncccn1)Nc1nccs1 | > 4 mM (inactive)
CCOC(=O)c1csc(C2COc3ccccc3O2)n1 (stereo unspecified) | > 4 mM (inactive)
Cc1cc[n+](-c2nc([O-])sc2C=O)cc1 | > 4 mM (inactive)
Nc1ccc(O)cn1 | > 4 mM (inactive)
NCc1cn2ccccc2n1 | > 4 mM (inactive)
CCSc1n[nH]c(=O)[nH]c1=O | > 4 mM (inactive)
Cc1nnc(SCc2ccc(F)cc2)s1 | > 4 mM (inactive)
O=C(O)CN1CCNCC1 | > 4 mM (inactive)
O=S(=O)(c1cccc(Cl)c1)N1CCCC1 | > 4 mM (inactive)
CSc1nc(C)cc(Oc2ccc(=O)n(C)n2)n1 | > 4 mM (inactive)
O=C(/C=C1\SC(=O)NC1=O)NCc1ccccc1 | > 4 mM (inactive)

SMILES | Kd
CC(=O)n1c(N)nc2ccccc21 | > 4 mM (inactive)
O=C1C2CC=CCC2C(=O)N1c1ccccc1 (stereo unspecified) | > 4 mM (inactive)
COC1=CC(=O)C(O)=C/C1=C\C=C\c1ccccc1 | > 4 mM (inactive)
O=C1NC(=O)C(Cc2cccs2)C(=O)N1 | > 4 mM (inactive)
O=C1CSC(c2ccc3c(c2)OCO3)N1 (stereo unspecified) | > 4 mM (inactive)
O=C1C=CC2=C3c4cc(O)c(O)cc4CC3(O)COC2=C1O (stereo unspecified) | > 4 mM (inactive)
O=C1CCCc2c(O)cccc21 | > 4 mM (inactive)
COC(=O)C[C@H]1C(C)(C)C(OC(C)=O)[C@]2(O)C=C3C(CC[C@]4(C)C3CC(=O)O[C@H]4c3ccoc3)C1(C)C2=O (stereo partly specified) | > 4 mM (inactive)
O=C(O)CCN1CCOCC1 | > 4 mM (inactive)
CCOC(=O)CNc1ncnc2c1nnn2CC | > 4 mM (inactive)
NN1C(=O)CSC1=Nc1ccccc1 | > 4 mM (inactive)
c1cncc(Nc2nc(-c3ccncc3)cs2)c1 | > 4 mM (inactive)
CC1(C)Cc2c(c(-c3ccco3)[nH]c(=O)c2C#N)CO1 | > 4 mM (inactive)
CC(=O)NC1=NN(c2ccccc2)C(=O)C1 | > 4 mM (inactive)
O=C1CSC(=O)N1c1cccc(O)c1 | > 4 mM (inactive)
CN(C(N)=O)C1(C)CCS(=O)(=O)C1 (stereo unspecified) | > 4 mM (inactive)
CN=C(C)c1c(O)n(C)c(=S)n(C)c1=O | > 4 mM (inactive)
CS/C(N)=C\C(C)=O | > 4 mM (inactive)
COc1ccc2cc1Oc1ccc(cc1)C[C@H]1c3cc(c(OC)cc3CCN1C)Oc1c(OC)c(OC)cc3c1[C@H](C2)N(C)CC3 | > 4 mM (inactive)
N=C1/C(=C\c2ccccc2)C(=O)N=C2SC=NN12 | > 4 mM (inactive)
Cc1cc(=O)c2ccccc2n1CC(N)=O | > 4 mM (inactive)
C=CCCCCCCCCCCCc1ccco1 | > 4 mM (inactive)
O=C1CSC(=Nc2cc(Cl)ccc2Cl)N1 | > 4 mM (inactive)
Cc1ccc(C(C)C)cc2c(C)ccc1-2 | > 4 mM (inactive)
Cc1c(C(=O)Nc2cnccn2)oc2ccccc12 | > 4 mM (inactive)

SMILES | Kd
CC(=O)Nc1ccc(NC(=O)C2CC2)cc1 | > 4 mM (inactive)
NC(=O)CSc1nc2ccccc2[nH]1 | > 4 mM (inactive)
O=S1(=O)C=C(Nc2ccccc2)CC1 | > 4 mM (inactive)
O=C1CC(C(=O)O)c2ccccc21 (stereo unspecified) | > 4 mM (inactive)
Cc1cccc(-c2nnc(-c3ccc(N)cc3)o2)c1 | > 4 mM (inactive)
C=C1CCC(C2CC(=O)OC2=O)C(=O)CCC2C1CC2(C)C (stereo unspecified) | > 4 mM (inactive)
Cc1ccccc1C(=O)Nc1cccc(N)c1 | > 4 mM (inactive)
NC(=O)c1ccc(N2CCCCC2)c(N)c1 | > 4 mM (inactive)
CC1CCN(C(=S)c2ccccc2O)CC1 | > 4 mM (inactive)
Nc1ccc2nccnc2c1 | > 4 mM (inactive)
CC(=O)c1c(C)nc(-c2ccc(Cl)cc2Cl)n1O | > 4 mM (inactive)
OC(CCl)c1ccc(-n2cncn2)cc1 (stereo unspecified) | > 4 mM (inactive)
N/C(=N/O)C1COc2ccccc2O1 (stereo unspecified) | > 4 mM (inactive)
CC1(C)N=C2C(=N)C=CC=C2N1O | > 4 mM (inactive)
C/C=C(\C)C(=O)O[C@H]1C[C@@H](OC(C)=O)[C@@]2(C(=O)OC)CO[C@@H]3C2[C@]12CO[C@](O)(C(=O)OC)[C@H]2[C@](C)(C12O[C@@]1(C)[C@H]1C[C@@H]2OC2OC=C[C@@]21O)[C@@H]3O (stereo partly specified) | > 4 mM (inactive)
Cc1ccc(N2CCN(C(=O)c3ccccc3)CC2)c(C)c1 | > 4 mM (inactive)
c1ccc(-c2noc(-c3cccnc3)n2)nc1 | > 4 mM (inactive)
CCn1cnc2cc([N+](=O)[O-])ccc2c1=O | > 4 mM (inactive)
O=C1NC(=S)N/C1=C\c1ccccc1F | > 4 mM (inactive)
COc1ccc2ccc(=O)oc2c1CC=C(C)C | > 4 mM (inactive)
CC1(C)O[C@H]2[C@H](O)C[C@](O)(C(N)=O)C[C@H]2O1 | > 4 mM (inactive)
